Data published in ChEMBL document CHEMBL1133403 (Bioorg Med Chem Lett, 2000).
Calls of active or inactive are those of the source. The calls are words filed in the database; no cut-off is given here.

Tests used:
Progesterone receptor [1] = target: T1, Progesterone receptor (Homo sapiens, UniProt P06401); experiment: Antagonist activity against human progesterone receptor (hPR) using cotransfection assay in CV-1 cells; type: functional, cell-based
T1 sequence (P06401 whole entry): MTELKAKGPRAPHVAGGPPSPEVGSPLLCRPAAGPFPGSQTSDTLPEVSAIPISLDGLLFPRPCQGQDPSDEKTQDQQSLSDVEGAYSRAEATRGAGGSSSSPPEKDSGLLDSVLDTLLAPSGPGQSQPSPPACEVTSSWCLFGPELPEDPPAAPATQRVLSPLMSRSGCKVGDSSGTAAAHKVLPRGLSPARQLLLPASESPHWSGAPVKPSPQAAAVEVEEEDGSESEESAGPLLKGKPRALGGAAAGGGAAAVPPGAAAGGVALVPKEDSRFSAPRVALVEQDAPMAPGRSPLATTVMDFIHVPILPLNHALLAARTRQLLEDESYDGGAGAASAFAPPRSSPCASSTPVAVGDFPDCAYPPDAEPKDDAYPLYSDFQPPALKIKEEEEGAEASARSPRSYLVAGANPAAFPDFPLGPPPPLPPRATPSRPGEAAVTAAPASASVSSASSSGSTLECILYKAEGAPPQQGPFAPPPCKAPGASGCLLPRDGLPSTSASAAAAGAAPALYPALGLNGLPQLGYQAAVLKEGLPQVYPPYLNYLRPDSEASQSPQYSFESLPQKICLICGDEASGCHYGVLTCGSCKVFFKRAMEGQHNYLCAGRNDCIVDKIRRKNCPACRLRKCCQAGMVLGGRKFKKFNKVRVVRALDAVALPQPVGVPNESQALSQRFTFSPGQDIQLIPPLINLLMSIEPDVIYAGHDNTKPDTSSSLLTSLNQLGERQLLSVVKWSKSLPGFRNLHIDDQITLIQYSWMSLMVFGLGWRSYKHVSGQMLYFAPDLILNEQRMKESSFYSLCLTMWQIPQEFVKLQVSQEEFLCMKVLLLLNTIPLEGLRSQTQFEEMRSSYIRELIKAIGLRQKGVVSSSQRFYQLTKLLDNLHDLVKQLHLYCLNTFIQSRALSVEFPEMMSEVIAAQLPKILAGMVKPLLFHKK

Androgen receptor = target: T2, Androgen receptor (Homo sapiens, UniProt P10275); experiment: Cross-reactivity as binding to human androgen receptor (hAR); type: functional
T2 sequence (P10275 whole entry): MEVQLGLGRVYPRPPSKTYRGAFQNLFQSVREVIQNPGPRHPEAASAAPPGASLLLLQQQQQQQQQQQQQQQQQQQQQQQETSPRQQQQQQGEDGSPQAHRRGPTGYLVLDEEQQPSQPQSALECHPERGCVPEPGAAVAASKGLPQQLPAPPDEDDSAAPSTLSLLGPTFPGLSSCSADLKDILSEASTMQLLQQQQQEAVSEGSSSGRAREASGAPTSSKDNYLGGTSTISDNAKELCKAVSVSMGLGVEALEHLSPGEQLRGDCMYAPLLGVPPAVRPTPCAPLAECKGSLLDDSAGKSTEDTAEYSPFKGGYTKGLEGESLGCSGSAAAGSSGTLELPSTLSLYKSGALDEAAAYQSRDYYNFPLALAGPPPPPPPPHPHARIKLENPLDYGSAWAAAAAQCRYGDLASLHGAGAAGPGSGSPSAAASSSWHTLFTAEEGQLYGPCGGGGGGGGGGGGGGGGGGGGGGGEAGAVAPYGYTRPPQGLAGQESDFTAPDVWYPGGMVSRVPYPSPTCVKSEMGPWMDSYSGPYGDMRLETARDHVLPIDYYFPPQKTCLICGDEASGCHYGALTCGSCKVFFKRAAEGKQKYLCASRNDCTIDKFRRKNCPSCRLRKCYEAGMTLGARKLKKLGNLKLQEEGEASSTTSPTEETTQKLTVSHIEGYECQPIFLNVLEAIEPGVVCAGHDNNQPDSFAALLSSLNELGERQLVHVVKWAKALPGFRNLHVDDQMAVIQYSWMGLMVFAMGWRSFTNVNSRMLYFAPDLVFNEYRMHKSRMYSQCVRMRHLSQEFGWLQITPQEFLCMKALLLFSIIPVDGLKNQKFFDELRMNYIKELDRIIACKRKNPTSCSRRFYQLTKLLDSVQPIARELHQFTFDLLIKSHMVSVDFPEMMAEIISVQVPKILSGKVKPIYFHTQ

Progesterone receptor [2] = target: T1, Progesterone receptor; experiment: Binding affinity against human progesterone receptor (hPR) in a competitive binding assay
Progesterone receptor [3] = target: T1, Progesterone receptor; experiment: Human progesterone receptor (hPR) agonist activity in T47D human breast cancer cell line; type: functional, cell-based
Progesterone receptor [4] = target: T1, Progesterone receptor; experiment: Antagonist activity against human progesterone receptor (hPR) in T47D human breast cancer cell line; type: functional, cell-based
[5] = target: T3, Mineralocorticoid receptor (Homo sapiens) (UniProt P08235); experiment: Percent inhibition of mineralocorticoid receptor transcriptional activity at aldosterone EC50; NA=not active; type: functional
T3 sequence (whole entry): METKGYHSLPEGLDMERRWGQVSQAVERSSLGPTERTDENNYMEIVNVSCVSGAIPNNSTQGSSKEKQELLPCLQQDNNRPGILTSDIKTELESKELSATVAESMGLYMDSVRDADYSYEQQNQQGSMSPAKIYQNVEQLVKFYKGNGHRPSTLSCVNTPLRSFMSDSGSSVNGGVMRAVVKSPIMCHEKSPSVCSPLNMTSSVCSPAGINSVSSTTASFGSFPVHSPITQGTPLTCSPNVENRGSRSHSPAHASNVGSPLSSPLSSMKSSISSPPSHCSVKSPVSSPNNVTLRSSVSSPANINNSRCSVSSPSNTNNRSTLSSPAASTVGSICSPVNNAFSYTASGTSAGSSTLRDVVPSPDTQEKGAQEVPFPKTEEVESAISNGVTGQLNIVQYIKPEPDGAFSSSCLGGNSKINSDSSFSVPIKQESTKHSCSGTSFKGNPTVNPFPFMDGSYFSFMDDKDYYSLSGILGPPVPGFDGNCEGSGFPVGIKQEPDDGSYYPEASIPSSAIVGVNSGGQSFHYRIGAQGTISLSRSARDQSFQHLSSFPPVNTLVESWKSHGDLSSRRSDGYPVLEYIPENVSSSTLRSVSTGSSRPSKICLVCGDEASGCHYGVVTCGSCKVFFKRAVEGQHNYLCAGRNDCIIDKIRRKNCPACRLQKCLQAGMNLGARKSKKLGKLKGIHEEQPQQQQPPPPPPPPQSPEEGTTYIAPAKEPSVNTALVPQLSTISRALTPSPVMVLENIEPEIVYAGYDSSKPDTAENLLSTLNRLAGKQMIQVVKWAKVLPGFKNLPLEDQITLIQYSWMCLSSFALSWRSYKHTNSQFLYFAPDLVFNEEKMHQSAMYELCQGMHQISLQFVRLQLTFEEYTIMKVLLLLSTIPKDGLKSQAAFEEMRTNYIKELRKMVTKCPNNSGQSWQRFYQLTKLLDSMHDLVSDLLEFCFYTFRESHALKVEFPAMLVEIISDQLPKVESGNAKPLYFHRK

IC50 (Progesterone receptor [1]): 31 nM
IC50 (Androgen receptor): 1460 nM
Ki (Progesterone receptor [2]): 2.6 nM
EC50 (Progesterone receptor [3]): 1020 nM
IC50 (Progesterone receptor [4]): 70 nM
Efficacy [5]: inactive
Structure (SMILES): CC1=CC(C)(C)Nc2ccc(-c3ccc([N+](=O)[O-])s3)cc21
